The values that follow come from ChEMBL document CHEMBL5291721, “A preclinical secondary pharmacology resource illuminates target-adverse drug reaction associations of marketed drugs” (Nat Commun, 2023).

Assay [1] concerns the target T1, Muscarinic acetylcholine receptor M1 (Homo sapiens, UniProt P11229).
T1 sequence (P11229 whole entry): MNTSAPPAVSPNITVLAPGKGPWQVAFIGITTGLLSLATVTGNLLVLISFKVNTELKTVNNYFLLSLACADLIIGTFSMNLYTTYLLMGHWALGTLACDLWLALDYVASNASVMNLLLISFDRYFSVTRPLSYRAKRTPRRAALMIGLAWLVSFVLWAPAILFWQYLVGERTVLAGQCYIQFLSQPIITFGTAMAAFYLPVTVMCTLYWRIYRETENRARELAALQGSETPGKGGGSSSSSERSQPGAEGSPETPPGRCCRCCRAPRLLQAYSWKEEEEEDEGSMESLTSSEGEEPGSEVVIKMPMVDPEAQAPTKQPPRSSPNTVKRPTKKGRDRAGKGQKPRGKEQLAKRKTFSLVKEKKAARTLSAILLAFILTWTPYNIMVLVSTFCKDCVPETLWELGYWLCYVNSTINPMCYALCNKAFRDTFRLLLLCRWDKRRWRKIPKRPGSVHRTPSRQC
It is filed as functional.

The target of assay [2] is Histamine H2 receptor (Homo sapiens, UniProt P25021). It is filed as functional, cell-based.
For assay [3], the target named is T2, 5-hydroxytryptamine receptor 1A (Homo sapiens, UniProt P08908).
T2 sequence (P08908 whole entry): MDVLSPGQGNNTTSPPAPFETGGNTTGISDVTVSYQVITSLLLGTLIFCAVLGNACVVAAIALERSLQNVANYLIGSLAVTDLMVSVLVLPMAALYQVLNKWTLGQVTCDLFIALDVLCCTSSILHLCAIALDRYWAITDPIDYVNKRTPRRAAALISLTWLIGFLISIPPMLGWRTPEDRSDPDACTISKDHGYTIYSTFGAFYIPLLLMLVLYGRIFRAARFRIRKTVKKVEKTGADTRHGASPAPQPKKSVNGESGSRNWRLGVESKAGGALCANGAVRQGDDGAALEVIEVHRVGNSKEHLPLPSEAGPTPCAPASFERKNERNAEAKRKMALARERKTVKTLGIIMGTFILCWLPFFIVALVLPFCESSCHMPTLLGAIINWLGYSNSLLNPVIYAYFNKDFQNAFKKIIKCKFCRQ
Format: functional, cell-based.

Assay [4] addresses T3, Estrogen receptor (Homo sapiens, UniProt P03372).
T3 sequence (P03372 whole entry): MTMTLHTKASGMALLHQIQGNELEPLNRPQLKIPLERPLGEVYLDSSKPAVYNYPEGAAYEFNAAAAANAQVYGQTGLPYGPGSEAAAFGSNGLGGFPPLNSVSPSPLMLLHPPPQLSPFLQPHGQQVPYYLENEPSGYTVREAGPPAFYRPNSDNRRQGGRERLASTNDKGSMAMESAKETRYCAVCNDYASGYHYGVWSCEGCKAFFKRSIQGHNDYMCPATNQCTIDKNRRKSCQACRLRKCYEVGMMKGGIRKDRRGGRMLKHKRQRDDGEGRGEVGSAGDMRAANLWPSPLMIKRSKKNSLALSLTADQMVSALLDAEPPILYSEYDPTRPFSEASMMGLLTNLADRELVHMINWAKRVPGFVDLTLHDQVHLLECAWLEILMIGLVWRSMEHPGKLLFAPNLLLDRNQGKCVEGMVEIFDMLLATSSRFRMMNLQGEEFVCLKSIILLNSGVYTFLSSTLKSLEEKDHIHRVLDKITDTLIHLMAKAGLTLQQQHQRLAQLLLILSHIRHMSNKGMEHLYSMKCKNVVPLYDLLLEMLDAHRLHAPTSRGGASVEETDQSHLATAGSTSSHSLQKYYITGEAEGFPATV

Assay [5] addresses T4, Prostaglandin G/H synthase 1 (Rattus norvegicus, UniProt Q63921).
T4 sequence (Q63921 whole entry): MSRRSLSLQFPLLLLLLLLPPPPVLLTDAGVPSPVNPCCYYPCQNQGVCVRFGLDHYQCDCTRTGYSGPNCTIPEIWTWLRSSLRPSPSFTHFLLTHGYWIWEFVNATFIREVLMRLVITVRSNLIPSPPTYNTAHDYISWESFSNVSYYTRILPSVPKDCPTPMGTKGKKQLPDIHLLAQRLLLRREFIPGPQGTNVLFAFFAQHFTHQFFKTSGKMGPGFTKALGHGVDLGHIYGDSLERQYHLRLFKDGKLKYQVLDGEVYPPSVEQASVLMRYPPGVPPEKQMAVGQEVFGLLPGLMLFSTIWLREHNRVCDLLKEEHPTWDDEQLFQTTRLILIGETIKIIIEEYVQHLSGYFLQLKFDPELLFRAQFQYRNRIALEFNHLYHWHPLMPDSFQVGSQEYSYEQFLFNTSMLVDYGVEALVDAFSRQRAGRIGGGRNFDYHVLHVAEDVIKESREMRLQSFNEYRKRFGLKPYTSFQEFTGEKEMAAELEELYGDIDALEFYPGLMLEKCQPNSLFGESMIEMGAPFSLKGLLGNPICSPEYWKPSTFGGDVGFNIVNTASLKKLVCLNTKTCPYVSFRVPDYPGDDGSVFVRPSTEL
It is filed as functional.

Assay [6] concerns the target Beta-1 adrenergic receptor (Homo sapiens, UniProt P08588). Format: functional.
For assay [7], the target named is T5, 5-hydroxytryptamine receptor 2C (Homo sapiens, UniProt P28335).
T5 sequence (P28335 whole entry): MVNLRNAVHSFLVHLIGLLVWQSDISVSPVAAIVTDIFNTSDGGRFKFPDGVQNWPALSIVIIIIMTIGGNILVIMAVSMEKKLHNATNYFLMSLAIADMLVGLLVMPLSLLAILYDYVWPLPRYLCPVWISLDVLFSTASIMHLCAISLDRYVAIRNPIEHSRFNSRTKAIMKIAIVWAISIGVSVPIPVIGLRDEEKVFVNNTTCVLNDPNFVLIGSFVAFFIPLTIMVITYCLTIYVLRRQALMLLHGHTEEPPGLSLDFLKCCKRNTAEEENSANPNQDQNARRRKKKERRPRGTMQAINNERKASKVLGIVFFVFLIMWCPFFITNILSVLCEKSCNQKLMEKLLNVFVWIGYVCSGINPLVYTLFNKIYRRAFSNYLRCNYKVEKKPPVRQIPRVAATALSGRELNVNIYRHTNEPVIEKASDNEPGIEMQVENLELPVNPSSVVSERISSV

In assay [8] the target is 5-hydroxytryptamine receptor 2B (Homo sapiens, UniProt P41595). Format: functional, cell-based.
The target of assay [9] is Sodium-dependent noradrenaline transporter (Homo sapiens, UniProt P23975).
Assay [10] addresses Glutamate receptor ionotropic, NMDA 1 (Rattus norvegicus, UniProt P35439).
Further: assay procedure not described here.

Sequence of Beta-1 adrenergic receptor (P08588 whole entry): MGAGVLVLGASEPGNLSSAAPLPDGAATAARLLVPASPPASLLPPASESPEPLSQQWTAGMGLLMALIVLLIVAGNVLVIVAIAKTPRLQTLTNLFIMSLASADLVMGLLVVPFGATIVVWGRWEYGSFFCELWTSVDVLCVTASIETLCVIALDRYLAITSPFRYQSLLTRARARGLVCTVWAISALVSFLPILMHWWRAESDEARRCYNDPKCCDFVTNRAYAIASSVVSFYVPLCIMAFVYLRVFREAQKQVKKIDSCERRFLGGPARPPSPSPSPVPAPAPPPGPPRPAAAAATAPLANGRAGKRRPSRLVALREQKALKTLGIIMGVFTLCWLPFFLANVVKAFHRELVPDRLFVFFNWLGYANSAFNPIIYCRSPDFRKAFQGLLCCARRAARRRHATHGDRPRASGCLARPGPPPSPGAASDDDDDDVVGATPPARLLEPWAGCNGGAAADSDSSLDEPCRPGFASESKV
Sequence of 5-hydroxytryptamine receptor 2B (P41595 whole entry): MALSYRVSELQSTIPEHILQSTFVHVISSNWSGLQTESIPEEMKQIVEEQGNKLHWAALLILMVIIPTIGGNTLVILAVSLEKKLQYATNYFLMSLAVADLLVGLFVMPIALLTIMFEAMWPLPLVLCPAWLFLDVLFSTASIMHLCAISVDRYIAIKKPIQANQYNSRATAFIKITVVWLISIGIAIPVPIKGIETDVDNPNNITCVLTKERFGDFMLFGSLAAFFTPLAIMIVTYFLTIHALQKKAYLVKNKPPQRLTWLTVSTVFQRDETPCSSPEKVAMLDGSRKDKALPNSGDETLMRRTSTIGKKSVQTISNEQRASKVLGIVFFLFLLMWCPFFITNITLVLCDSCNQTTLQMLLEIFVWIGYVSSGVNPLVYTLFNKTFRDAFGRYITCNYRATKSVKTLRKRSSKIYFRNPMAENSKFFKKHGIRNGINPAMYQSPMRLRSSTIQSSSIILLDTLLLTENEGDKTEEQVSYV
Sequence of Histamine H2 receptor (P25021 whole entry): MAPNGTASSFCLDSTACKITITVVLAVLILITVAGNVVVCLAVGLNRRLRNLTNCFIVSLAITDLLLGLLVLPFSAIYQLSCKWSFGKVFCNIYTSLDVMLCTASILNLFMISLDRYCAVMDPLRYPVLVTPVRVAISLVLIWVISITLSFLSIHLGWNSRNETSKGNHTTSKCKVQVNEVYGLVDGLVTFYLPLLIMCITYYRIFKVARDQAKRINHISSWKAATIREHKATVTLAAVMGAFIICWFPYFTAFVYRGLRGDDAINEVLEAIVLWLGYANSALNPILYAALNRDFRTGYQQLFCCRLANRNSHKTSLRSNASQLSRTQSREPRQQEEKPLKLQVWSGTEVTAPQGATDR
Sequence of Sodium-dependent noradrenaline transporter (P23975 whole entry): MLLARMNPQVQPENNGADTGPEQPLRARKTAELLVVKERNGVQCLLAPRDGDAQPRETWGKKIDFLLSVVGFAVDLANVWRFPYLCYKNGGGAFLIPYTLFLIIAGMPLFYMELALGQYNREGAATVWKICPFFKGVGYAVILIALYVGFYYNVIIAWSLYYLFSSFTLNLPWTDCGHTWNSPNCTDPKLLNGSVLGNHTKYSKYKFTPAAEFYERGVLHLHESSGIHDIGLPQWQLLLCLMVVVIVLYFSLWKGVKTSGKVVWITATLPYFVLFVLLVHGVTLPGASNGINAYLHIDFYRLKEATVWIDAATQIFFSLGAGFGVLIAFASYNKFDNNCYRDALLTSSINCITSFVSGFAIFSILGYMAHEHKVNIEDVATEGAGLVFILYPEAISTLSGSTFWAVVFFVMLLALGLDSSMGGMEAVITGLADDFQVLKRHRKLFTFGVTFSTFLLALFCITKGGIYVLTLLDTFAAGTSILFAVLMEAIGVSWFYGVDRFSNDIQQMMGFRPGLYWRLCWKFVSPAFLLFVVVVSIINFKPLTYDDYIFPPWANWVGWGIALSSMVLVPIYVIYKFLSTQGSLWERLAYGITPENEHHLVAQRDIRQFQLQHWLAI

With `CCOC(=O)[C@H](CCc1ccccc1)N[C@@H](C)C(=O)N1C(=O)N(C)C[C@H]1C(=O)O`, the AC50 – broadly, the concentration giving half of the maximal activity seen – in assay [1] was over 30 µM; in [2], over 30 µM; in [3], over 30 µM; in assay [4] it was over 30 µM; in assay [5] it was 12 µM; in [6], over 30 µM. In addition, the AC50 in [7], in assay [8], in [9] and in assay [10] was over 30 µM in each case.
On to `CC(C)(C)C(=O)Oc1ccc(S(=O)(=O)Nc2ccccc2C(=O)NCC(=O)O)cc1`, for which the half-maximal activity concentration (AC50) in assay [1], in assay [2], in assay [3], in assay [4], in assay [5] and in assay [6] was over 30 µM each time. Besides, the AC50 in assay [7], in assay [8], in assay [9] and in [10] was over 30 µM each time.
With `NCC[C@H](O)C(=O)N[C@@H]1C[C@H](N)[C@@H](O[C@H]2O[C@H](CN)[C@@H](O)[C@H](O)[C@H]2O)[C@H](O)[C@H]1O[C@H]1O[C@H](CO)[C@@H](O)[C@H](N)[C@H]1O` [AMIKACIN], the half-maximal activity concentration (AC50) in assay [2] is over 10 µM; in assay [3] it was over 10 µM; in assay [4] it was over 10 µM; in assay [5], over 10 µM; in assay [6], over 10 µM; in assay [7] it was over 30 µM. The concentration at half-maximal activity (AC50) in [8], in assay [9] and in [10] was over 10 µM in each case.
For the compound `O=C(O)CCCCCCNC1c2ccccc2CCc2ccccc21` [AMINEPTINE], the AC50 in [1], in assay [2], in [3], in assay [4], in assay [5] and in assay [6] was over 30 µM in each case. Further, the half-maximal activity concentration (AC50) in [7] is 0.17 µM; in [8] it was over 30 µM; in assay [9], over 30 µM; in assay [10], over 30 µM.
Turning to `COc1ccccc1OCCNCC(O)c1ccc(C)c(S(N)(=O)=O)c1` (stereo not drawn) [AMOSULALOL], the half-maximal activity concentration (AC50) in assay [1] was over 30 µM; in [2] it was over 30 µM; in assay [3], 0.16 µM; in [4] it was over 30 µM; in [5], over 30 µM; in assay [6], 0.06 µM. In addition, the half-maximal activity concentration (AC50) in [7] was over 30 µM; in assay [8] it was 1.6 µM; in assay [9], over 30 µM; in [10], over 30 µM.
For the compound `C=CCC1(CC(C)C)C(=O)NC(=O)NC1=O` [BUTALBITAL], the AC50 in assay [1] was over 30 µM; in assay [2] it was over 30 µM; in assay [3], over 10 µM; in assay [4], over 10 µM; in [5], over 10 µM; in assay [6], over 10 µM. Also, the AC50 is over 30 µM in assay [7], over 10 µM in [8], over 10 µM in [9] and over 10 µM in [10].
Turning to `CCN1CCN(C(=O)N[C@@H](C(=O)N[C@@H]2C(=O)N3C(C(=O)O)=C(CSc4nnnn4C)CS[C@H]23)c2ccc(O)cc2)C(=O)C1=O` [CEFOPERAZONE], the half-maximal activity concentration (AC50) in assay [1], in [2], in assay [3], in assay [4], in assay [5] and in assay [6] was over 30 µM throughout. For the same compound, the AC50 in assay [7], in assay [8], in [9] and in assay [10] was over 30 µM each time.
With `Cc1cc(O)c(C(=O)N[C@@H](C(=O)N[C@@H]2C(=O)N3C(C(=O)O)=C(CSc4nnnn4C)CS[C@H]23)c2ccc(O)cc2)cn1` [CEFPIRAMIDE], the concentration at half-maximal activity (AC50) in [1], in [2], in assay [3], in assay [4], in assay [5] and in assay [6] was over 30 µM each time. In addition, the AC50 in assay [7], in assay [8], in [9] and in assay [10] was over 30 µM each time.
For `C#C[C@]1(O)CC[C@H]2[C@@H]3CCC4=Cc5oncc5C[C@]4(C)[C@H]3CC[C@@]21C` [DANAZOL], the AC50 was over 10 µM in [2]; over 10 µM in assay [3]; over 30 µM in [4]; over 10 µM in assay [6]; over 30 µM in [7]; over 10 µM in assay [8]. For the same compound, in assay [10], the AC50 is over 10 µM.
Turning to `Cc1ccc(S(=O)(=O)NC(=O)NN2CC3CCCC3C2)cc1` (stereo not drawn) [GLICLAZIDE], the AC50 is over 30 µM in assay [2]; over 10 µM in assay [3]; over 10 µM in assay [4]; over 10 µM in assay [5]; over 10 µM in assay [6]; over 30 µM in assay [7]. Besides, the concentration at half-maximal activity (AC50) in assay [8], in [9] and in assay [10] was over 10 µM throughout.
In the case of `CC(C)Cn1cnc2c(N)nc3ccccc3c21` [IMIQUIMOD], the AC50 was over 10 µM in assay [2]; over 10 µM in assay [3]; over 10 µM in assay [4]; over 30 µM in assay [5]; over 10 µM in assay [6]; over 30 µM in assay [7]. Moreover, the concentration at half-maximal activity (AC50) in assay [8] was 13.8 µM; in [9], over 30 µM; in [10], over 10 µM.
`CN1CCN(CC/C=C2/c3ccccc3Sc3ccc(S(=O)(=O)N(C)C)cc32)CC1` [THIOTHIXENE]: the AC50 in assay [1] is over 10 µM; in assay [2], over 10 µM; in assay [4], over 30 µM; in [5], over 30 µM; in assay [6], over 10 µM; in assay [7], 2.8 µM. In addition, the concentration at half-maximal activity (AC50) in assay [8] was 4.9 µM; in assay [9] it was over 10 µM; in assay [10] it was over 10 µM.
